Measurements published in US11691980B2, “Liphagal analog and multi-targeted kinase inhibitor containing liphagal or analog thereof” (TOHOKU UNIVERSITY, priority 2017, dated 2023).

What was measured:
Format in all cases: biochemical
PIK3CA/PIK3R1 = PIK3CA/PIK3R1 (Homo sapiens, UniProt P42336); experiment: ADP-Glo Kinase Assay; details: FIG. 4
Description: CD-3 produced in the foregoing was used as a test substance, and was measured for its IC50 value for PIK3CA/PIK3R1 by ADP-Glo™ Kinase Assay. A specific procedure is as described below.
The test substance was dissolved in dimethyl sulfoxide (DMSO), and further diluted with DMSO to prepare a solution having a 100-fold concentration with respect to a Lest concentration. The solution was further diluted 25-fold with an assay buffer to prepare a test substance solution. A positive control substance was similarly treated to prepare a positive control substance solution.
1) 5 μL of a test substance solution having a 4-fold concentration, 5 μL of a substrate solution having a 4-fold concentration, 5 μL of an ATP solution having a 4-fold concentration, and 5 μL of a kinase/metal solution having a 4-fold concentration, which had been prepared with an assay buffer (50 mM MOPS, 1 mM DTT, pH 7.2), were mixed in wells of a 384 well black plate made of polystyrene, and the mixture was subjected to a reaction at room temperature for 1 hour. […]
4) The kinase reaction was assessed in terms of relative light unit (RLU). […]
An IC50 value was determined by approximating a plot of test substance concentration and inhibition rate to a 4-parameter logistic curve by a nonlinear least-squares method.

CDK4/CycD3 = CDK4/CycD3 (Homo sapiens, UniProt P11802); experiment: IC50 by mobility shift assay; details: Table 3, CDK4, mobility shift assay; read-out: IC50 (μM), Kinase CDK4/CycD3
CDK4/CycD3, sequence (P11802 whole entry): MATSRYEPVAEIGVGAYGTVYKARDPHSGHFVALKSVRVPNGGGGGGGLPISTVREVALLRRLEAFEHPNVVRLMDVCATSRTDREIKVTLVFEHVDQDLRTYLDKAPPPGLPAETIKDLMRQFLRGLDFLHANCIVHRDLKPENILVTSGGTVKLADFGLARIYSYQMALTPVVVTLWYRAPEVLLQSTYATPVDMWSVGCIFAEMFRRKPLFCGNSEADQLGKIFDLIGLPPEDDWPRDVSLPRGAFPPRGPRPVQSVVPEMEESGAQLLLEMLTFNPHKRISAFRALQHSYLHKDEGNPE
CDK4/CycD3, sequence (P30281 whole entry partner): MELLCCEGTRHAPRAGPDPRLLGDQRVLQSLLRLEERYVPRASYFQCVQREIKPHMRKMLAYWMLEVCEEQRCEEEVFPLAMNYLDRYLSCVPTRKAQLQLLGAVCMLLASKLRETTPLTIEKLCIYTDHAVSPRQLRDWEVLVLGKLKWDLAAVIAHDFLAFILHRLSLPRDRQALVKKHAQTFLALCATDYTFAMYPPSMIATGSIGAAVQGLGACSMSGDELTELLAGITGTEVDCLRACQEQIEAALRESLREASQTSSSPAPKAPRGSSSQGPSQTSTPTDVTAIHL
Source text: Next, the compounds produced in Production Examples described above were each assessed for its inhibitory activity against CDK4 by mobility shift assay. In addition, a combination showing the highest inhibitory activity is indicated by italics.

PIM2 = PIM2 (Homo sapiens, UniProt Q9P1W9); experiment: IC50 by mobility shift assay; details: for IC50: Table 2, mobility shift assay, read-out: IC50 (μM), Kinase PIM2; for inhibitory activity against PIM2: in words, Table 2
PIM2, sequence (Q9P1W9 whole entry): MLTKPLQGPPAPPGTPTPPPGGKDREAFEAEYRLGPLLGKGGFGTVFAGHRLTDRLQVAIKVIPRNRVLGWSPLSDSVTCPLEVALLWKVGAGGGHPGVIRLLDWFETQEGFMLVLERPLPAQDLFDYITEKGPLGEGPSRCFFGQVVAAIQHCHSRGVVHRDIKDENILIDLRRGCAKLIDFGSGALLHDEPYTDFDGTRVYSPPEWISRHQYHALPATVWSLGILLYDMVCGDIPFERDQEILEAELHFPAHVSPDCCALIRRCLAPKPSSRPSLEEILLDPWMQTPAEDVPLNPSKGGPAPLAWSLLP
Source text: (§1) The compounds produced in Production Examples described above were each assessed for its inhibitory activity against CDK7, PIM2, and PI3K by mobility shift assay. In addition, a combination showing the highest inhibitory activity against each kinase is indicated by italics.

CDK7/CycHMAT1 = CDK7/CycHMAT1 (Homo sapiens, UniProt P50613); experiment: IC50 by mobility shift assay; details: Table 2, mobility shift assay; read-out: IC50 (μM), Kinase CDK7/CycH/MAT1
CDK7/CycHMAT1, sequence (P50613 whole entry): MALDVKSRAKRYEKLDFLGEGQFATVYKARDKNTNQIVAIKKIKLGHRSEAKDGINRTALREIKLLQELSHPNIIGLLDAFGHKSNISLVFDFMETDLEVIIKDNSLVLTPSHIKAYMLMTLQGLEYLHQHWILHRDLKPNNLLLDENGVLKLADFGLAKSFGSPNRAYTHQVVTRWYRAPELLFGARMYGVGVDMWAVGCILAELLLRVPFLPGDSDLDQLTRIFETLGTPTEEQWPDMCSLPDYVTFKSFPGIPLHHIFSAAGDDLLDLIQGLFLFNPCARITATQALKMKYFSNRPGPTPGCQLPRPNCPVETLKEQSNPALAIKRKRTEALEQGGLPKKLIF
CDK7/CycHMAT1, sequence (P51946 whole entry partner): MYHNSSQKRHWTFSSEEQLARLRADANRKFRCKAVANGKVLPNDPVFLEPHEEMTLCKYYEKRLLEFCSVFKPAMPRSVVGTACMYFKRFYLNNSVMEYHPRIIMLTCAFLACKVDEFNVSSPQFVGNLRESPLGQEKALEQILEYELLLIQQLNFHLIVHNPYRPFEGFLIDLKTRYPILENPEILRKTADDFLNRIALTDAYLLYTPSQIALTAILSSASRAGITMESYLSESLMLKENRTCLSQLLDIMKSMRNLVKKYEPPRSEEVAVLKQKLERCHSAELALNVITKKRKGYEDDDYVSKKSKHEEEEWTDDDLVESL
CDK7/CycHMAT1, sequence (P51948 whole entry partner): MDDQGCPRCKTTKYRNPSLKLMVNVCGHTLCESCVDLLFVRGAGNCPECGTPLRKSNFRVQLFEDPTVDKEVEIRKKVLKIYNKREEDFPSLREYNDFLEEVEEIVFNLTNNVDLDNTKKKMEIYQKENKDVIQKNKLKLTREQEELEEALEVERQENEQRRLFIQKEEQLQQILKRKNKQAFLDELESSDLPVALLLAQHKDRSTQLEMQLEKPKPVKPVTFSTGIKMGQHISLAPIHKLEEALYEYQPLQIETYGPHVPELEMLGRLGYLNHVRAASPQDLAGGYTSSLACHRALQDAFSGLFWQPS
Source text: as §1

PIK3α (PIK3CA/PIK3R1) = PIK3α (PIK3CA/PIK3R1) (Homo sapiens, UniProt P42336); experiment: IC50 by mobility shift assay; details: Table 2, mobility shift assay; read-out: IC50 (μM), Kinase PIK3CA/PIK3RI
PIK3α (PIK3CA/PIK3R1), sequence (P42336 whole entry): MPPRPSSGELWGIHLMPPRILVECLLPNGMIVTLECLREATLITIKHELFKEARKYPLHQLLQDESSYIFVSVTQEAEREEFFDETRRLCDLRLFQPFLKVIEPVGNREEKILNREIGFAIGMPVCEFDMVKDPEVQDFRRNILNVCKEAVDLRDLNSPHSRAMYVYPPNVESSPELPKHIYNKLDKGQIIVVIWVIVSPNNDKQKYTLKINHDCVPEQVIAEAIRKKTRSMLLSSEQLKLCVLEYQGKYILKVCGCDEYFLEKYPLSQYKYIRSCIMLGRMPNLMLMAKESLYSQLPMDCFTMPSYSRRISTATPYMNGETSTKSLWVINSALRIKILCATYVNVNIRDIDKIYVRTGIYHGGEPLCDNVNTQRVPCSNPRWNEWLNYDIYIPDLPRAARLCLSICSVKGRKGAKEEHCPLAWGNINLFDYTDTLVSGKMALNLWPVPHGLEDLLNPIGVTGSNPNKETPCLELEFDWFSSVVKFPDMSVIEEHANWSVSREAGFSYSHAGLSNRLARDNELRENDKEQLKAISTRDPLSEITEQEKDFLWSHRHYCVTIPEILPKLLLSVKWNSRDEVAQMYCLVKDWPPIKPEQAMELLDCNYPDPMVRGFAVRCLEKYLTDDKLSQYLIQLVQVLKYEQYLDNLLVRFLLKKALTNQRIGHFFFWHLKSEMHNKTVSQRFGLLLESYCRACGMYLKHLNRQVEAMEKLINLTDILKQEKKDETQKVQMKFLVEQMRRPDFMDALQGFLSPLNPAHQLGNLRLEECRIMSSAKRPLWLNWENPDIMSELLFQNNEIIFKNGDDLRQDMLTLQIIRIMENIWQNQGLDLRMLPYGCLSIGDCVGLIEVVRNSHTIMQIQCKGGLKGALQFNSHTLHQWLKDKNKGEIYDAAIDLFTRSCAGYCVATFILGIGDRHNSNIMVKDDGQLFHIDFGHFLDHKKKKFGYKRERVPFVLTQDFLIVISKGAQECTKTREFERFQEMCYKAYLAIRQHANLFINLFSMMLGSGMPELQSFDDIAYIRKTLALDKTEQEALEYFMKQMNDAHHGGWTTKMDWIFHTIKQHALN
PIK3α (PIK3CA/PIK3R1), sequence (P27986 whole entry partner): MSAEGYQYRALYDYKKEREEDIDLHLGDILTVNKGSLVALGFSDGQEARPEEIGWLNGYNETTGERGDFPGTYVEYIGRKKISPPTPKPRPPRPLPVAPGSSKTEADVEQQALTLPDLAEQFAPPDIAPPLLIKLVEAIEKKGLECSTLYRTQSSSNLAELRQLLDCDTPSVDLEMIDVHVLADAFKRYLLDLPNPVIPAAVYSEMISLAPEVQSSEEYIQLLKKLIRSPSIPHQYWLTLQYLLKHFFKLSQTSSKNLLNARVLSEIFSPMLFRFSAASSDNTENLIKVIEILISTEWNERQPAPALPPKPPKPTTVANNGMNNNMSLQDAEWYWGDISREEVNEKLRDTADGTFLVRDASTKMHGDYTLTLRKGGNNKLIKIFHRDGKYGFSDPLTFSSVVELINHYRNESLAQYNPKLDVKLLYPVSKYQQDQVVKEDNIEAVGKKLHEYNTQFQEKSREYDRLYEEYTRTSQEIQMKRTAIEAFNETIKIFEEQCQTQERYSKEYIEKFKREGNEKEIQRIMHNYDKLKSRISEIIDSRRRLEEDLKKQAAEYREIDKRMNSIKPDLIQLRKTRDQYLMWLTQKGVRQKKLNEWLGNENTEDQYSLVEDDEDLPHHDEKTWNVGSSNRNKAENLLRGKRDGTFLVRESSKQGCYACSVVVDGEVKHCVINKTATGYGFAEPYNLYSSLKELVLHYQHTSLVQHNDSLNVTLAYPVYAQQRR
Description: The compounds obtained in Production Examples described above were each measured for its IC50 value for PIK3α (PIK3CA/PIK3R1) by mobility shift assay. The mobility shift assay is a method involving separating and quantifying a substrate and a phosphorylated substrate on the basis of mobility in a capillary. Each compound was mixed at various concentrations with an assay buffer (20 mM HEPES, 2 mM DTT, 25 μM sodium cholate, 75 mM NaCl, 20 μM cantharidine) together with 21 nM PI3K, 1,000 nM phosphatidyl inositol, 50 μM ATP, and 5 mM MgCl, and the mixture was subjected to a reaction at room temperature for 5 hours, followed by the mobility shift assay. The test was repeated twice. The enzymatic reaction was assessed on the basis of a product ratio (P/(P+S)) calculated from the height of a substrate peptide peak (S) and the height of a phosphorylated peptide peak (P). An inhibition rate was calculated from a signal obtained when each compound was added, with the average signal of a control containing all reaction components being defined as 0% inhibition and the average signal of a background (no enzyme added) being defined as 100% inhibition.
as §1

CDK6 = CDK6 (Homo sapiens, UniProt Q00534); experiment: IC50 by mobility shift assay; details: Table 4, inhibitory activity against CDK6, mobility shift assay; read-out: IC50 (μM), Kinase
CDK6, sequence (Q00534 whole entry): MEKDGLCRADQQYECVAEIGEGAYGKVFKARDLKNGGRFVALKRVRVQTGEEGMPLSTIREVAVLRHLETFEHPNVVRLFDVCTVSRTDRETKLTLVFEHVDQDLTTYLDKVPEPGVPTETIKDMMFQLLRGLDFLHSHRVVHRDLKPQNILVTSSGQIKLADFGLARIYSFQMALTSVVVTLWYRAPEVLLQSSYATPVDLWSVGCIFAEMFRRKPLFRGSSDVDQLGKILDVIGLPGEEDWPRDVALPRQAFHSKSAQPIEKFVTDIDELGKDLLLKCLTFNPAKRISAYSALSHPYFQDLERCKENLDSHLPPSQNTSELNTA
Source text: Next, the compounds produced in Production Examples described above were each assessed for its inhibitory activity against CDK6 by mobility shift assay. In addition, a combination showing the highest inhibitory activity is indicated by italics.

PIK3CA/PIK3R1, sequence (P42336 whole entry): as the sequence (P42336 whole entry) above
PIK3CA/PIK3R1, sequence (P27986 whole entry partner): as the sequence (P27986 whole entry partner) above

| SMILES | IC50 (PIK3CA/PIK3R1) [µM] | IC50 (CDK4/CycD3) [µM] | IC50 (PIM2) [µM] | inhibitory activity against PIM2 (PIM2) | IC50 (CDK7/CycHMAT1) [µM] | IC50 (PIK3α (PIK3CA/PIK3R1)) [µM] | IC50 (CDK6) [µM] |
| --- | --- | --- | --- | --- | --- | --- | --- |
| C[C@H]1CC[C@H]2C(C)(C)CCCC2(C)[C@]12C=C1C=C(O)C(=O)C(C=O)=C1O2 (stereo partly drawn) [CD-3, 8-epi-corallidictyal B] | 8.2 | – | – | – | – | – | – |
| C[C@H]1CC[C@H]2C(C)(C)CCC[C@]2(C)c2c1oc1c(C=O)c(O)c(O)cc21 [LG-2] | – | 125 | 2.81 | potent inhibitory actions | 9.08 | 1.72 | – |
| C[C@@H]1CC[C@H]2C(C)(C)CCC[C@]2(C)c2c1oc1c(C=O)c3c(cc21)OCO3 [LG-3] | – | 47.8 | 18 | – | 16.3 | 4.26 | 64.1 |
| C[C@H]1CC[C@H]2C(C)(C)CCC[C@]2(C)c2c1oc1c(C=O)c3c(cc21)OCO3 [LG-4] | – | – | 13.8 | – | 191 | 4.43 | – |

Now from value to compound:

| IC50 (PIK3CA/PIK3R1) [µM] | IC50 (CDK4/CycD3) [µM] | IC50 (PIM2) [µM] | inhibitory activity against PIM2 (PIM2) | IC50 (CDK7/CycHMAT1) [µM] | IC50 (PIK3α (PIK3CA/PIK3R1)) [µM] | IC50 (CDK6) [µM] | SMILES |
| --- | --- | --- | --- | --- | --- | --- | --- |
| – | 32.9 | 6.99 | – | 13.7 | 2.62 | 69.1 | C[C@@H]1CC[C@H]2C(C)(C)CCC[C@]2(C)/C1=C/c1cc(O)c(O)c(C=O)c1O [SD-1, siphonodictyal B] |
| – | 22.4 | 2.79 | potent inhibitory actions | 4.24 | 3.26 | 25.6 | C[C@H]1CC[C@H]2C(C)(C)CCC[C@]2(C)/C1=C/c1cc(O)c(O)c(C=O)c1O [SD-2, 8-epi-siphonodictyal B] |
